According to PMC5025758 (Nature Communications, 2016):

Assays:
NQO2 = NQO2 (Homo sapiens, UniProt P16083); experiment: chemoproteomic competition binding in mixed HEK293/K562/placenta extract, LC-MS/MS; format: biochemical
KasA = target: T1, KasA (Mycobacterium tuberculosis, UniProt P9WQD9); experiment: […] Å co-crystal structure; […]; also chemoproteomic Kd app […] and […] enzyme inhibition at […]; format: binding
T1 construct: recombinant KasA from pET28a-kasA

Pks10 = Pks10 (Mycobacterium tuberculosis, UniProt Q7VEV2); format: biochemical
Pks11 = format: biochemical, Mycobacterium bovis BCG
Adenosine A2a = target: T2, Adenosine A2a (Homo sapiens, UniProt P29274); experiment: cell-based; design: off-target selectivity panel, receptor agonist or channel opener mode, pXC50; conditions: agonist mode; read-out: pXC50 (agonist) (converted)
T2 construct: gene ADORA2A
Text: (§1) From the outset, GSK3011724A, an indazole sulfonamide (Fig. 1a), represented an attractive compound for early stage drug discovery based on its anti-mycobacterial potency, small size and moderate lipophilicity (Table 1). Further profiling in vitro using standard assays, such as the hERG ion channel and cytochrome P450 isoforms supported this view (Table 1). […] A description of this optimization effort along with a thorough discussion of the drug development potential and liabilities of this series will be the subject of a future publication.

Adrenergic α2C = target: T3, Adrenergic α2C (Homo sapiens, UniProt P18825); experiment: cell-based; design: off-target selectivity panel, receptor agonist or channel opener mode, pXC50; conditions: agonist mode; read-out: pXC50 (agonist) (converted)
T3 construct: gene ADRA2C
Text: as §1

Adrenergic β2 [1] = target: T4, Adrenergic β2 (Homo sapiens, UniProt P07550); experiment: cell-based; design: off-target selectivity panel, receptor agonist or channel opener mode, pXC50; conditions: agonist mode; read-out: pXC50 (agonist) (converted)
T4 construct: gene ADRB2
Text: as §1

AhR = AhR (Homo sapiens, UniProt P35869); experiment: cell-based; design: off-target selectivity panel, receptor agonist or channel opener mode, pXC50; conditions: agonist mode; read-out: pXC50 (agonist) (converted)
Text: as §1

Cannabinoid CB2 = target: T5, Cannabinoid CB2 (Homo sapiens, UniProt P34972); experiment: cell-based; design: off-target selectivity panel, receptor agonist or channel opener mode, pXC50; conditions: agonist mode; read-out: pXC50 (agonist) (converted)
T5 construct: gene CNR2
Text: as §1

Dopamine D2 = target: T6, Dopamine D2 (Homo sapiens, UniProt P14416); experiment: cell-based; design: off-target selectivity panel, receptor agonist or channel opener mode, pXC50; conditions: agonist mode; read-out: pXC50 (agonist) (converted)
T6 construct: gene DRD2
Text: as §1

Muscarine M1 = target: T7, Muscarine M1 (Homo sapiens, UniProt P11229); experiment: cell-based; design: off-target selectivity panel, receptor agonist or channel opener mode, pXC50; conditions: agonist mode; read-out: pXC50 (agonist) (converted)
T7 construct: gene CHRM1
Text: as §1

Muscarine M2 = target: T8, Muscarine M2 (Homo sapiens, UniProt P08172); experiment: cell-based; design: off-target selectivity panel, receptor agonist or channel opener mode, pXC50; conditions: agonist mode; read-out: pXC50 (agonist) (converted)
T8 construct: gene CHRM2
Text: as §1

Opioid κ = target: T9, Opioid κ (Homo sapiens, UniProt P41145); experiment: cell-based; design: off-target selectivity panel, receptor agonist or channel opener mode, pXC50; conditions: agonist mode; read-out: pXC50 (agonist) (converted)
T9 construct: gene OPRK1
Text: as §1

Opioid μ = target: T10, Opioid μ (Homo sapiens, UniProt P35372); experiment: cell-based; design: off-target selectivity panel, receptor agonist or channel opener mode, pXC50; conditions: agonist mode; read-out: pXC50 (agonist) (converted)
T10 construct: gene OPRM1
Text: as §1

PXR = target: T11, PXR (Homo sapiens, UniProt O75469); experiment: cell-based; design: off-target selectivity panel, receptor agonist or channel opener mode, pXC50; conditions: agonist mode; read-out: pXC50 (agonist) (converted)
T11 construct: gene NR1I2
Text: as §1

Serotonin 5HT1B = target: T12, Serotonin 5HT1B (Homo sapiens, UniProt P28222); experiment: cell-based; design: off-target selectivity panel, receptor agonist or channel opener mode, pXC50; conditions: agonist mode; read-out: pXC50 (agonist) (converted)
T12 construct: gene HTR1B
Text: as §1

Serotonin 5HT2A = target: T13, Serotonin 5HT2A (Homo sapiens, UniProt P28223); experiment: cell-based; design: off-target selectivity panel, receptor agonist or channel opener mode, pXC50; conditions: agonist mode; read-out: pXC50 (agonist) (converted)
T13 construct: gene HTR2A
Text: as §1

Serotonin 5HT2C = target: T14, Serotonin 5HT2C (Homo sapiens, UniProt P28335); experiment: cell-based; design: off-target selectivity panel, receptor agonist or channel opener mode, pXC50; conditions: agonist mode; read-out: pXC50 (agonist) (converted)
T14 construct: gene HTR2C
Text: as §1

Serotonin 5HT3 = target: T15, Serotonin 5HT3 (Homo sapiens, UniProt P46098); experiment: cell-based; design: off-target selectivity panel, receptor agonist or channel opener mode, pXC50; conditions: opener mode; read-out: pXC50 (opener) (converted)
T15 construct: gene HTR3A
Text: as §1

α1 nicotinic AChR = target: T16, α1 nicotinic AChR (Homo sapiens, UniProt P02708); experiment: cell-based; design: off-target selectivity panel, receptor agonist or channel opener mode, pXC50; conditions: opener mode; read-out: pXC50 (opener) (converted)
T16 construct: gene CHRNA1
Text: as §1

Adrenergic α1B = target: T17, Adrenergic α1B (Homo sapiens, UniProt P35368); experiment: cell-based; design: off-target selectivity panel, receptor antagonist, channel blocker or transporter inhibition mode, pXC50; conditions: antagonist mode; read-out: pXC50 (antagonist) (converted)
T17 construct: gene ADRA1B
Text: as §1

Adrenergic β2 [2] = target: T4, Adrenergic β2; experiment: cell-based; design: off-target selectivity panel, receptor antagonist, channel blocker or transporter inhibition mode, pXC50; conditions: antagonist mode; read-out: pXC50 (antagonist) (converted)
Text: as §1

Dopamine D1 = target: T18, Dopamine D1 (Homo sapiens, UniProt P21728); experiment: cell-based; design: off-target selectivity panel, receptor antagonist, channel blocker or transporter inhibition mode, pXC50; conditions: antagonist mode; read-out: pXC50 (antagonist) (converted)
T18 construct: gene DRD1
Text: as §1

T4 sequence (P07550 whole entry): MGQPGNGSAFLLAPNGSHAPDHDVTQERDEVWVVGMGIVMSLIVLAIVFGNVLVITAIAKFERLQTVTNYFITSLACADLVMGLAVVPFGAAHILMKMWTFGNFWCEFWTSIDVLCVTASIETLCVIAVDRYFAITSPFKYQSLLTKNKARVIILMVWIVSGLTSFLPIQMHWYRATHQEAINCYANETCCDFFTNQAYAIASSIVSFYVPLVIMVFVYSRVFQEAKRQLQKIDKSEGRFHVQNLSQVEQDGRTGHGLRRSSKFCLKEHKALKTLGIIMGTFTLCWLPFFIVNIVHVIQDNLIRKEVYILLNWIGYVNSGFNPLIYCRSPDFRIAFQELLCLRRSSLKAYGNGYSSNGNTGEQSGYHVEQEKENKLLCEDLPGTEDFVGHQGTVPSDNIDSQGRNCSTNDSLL
T16 sequence (P02708 whole entry): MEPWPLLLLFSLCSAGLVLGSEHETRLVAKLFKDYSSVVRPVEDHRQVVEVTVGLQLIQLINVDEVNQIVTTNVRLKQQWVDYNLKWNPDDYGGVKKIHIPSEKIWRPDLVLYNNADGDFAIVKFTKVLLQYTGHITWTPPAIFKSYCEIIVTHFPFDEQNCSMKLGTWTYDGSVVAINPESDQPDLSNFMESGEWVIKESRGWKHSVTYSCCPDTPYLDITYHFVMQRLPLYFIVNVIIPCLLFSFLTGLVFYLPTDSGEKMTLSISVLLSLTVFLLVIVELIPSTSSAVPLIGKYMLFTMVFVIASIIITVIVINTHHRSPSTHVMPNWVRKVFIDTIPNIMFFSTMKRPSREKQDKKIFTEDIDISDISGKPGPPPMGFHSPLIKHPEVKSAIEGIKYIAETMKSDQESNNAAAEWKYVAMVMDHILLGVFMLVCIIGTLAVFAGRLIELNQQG
T13 sequence (P28223 whole entry, looked up): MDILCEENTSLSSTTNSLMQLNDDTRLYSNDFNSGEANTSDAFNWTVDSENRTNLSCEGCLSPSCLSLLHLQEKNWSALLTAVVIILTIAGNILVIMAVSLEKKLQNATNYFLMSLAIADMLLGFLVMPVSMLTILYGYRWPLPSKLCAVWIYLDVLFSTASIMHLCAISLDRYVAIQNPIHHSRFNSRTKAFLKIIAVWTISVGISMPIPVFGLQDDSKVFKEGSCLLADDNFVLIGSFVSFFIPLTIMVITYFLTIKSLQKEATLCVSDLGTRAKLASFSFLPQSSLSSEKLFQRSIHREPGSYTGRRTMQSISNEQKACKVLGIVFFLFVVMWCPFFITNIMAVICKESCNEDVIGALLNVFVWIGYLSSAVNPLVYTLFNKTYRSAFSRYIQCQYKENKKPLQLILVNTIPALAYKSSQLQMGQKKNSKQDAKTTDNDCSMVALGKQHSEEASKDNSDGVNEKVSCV
T11 sequence (O75469 whole entry): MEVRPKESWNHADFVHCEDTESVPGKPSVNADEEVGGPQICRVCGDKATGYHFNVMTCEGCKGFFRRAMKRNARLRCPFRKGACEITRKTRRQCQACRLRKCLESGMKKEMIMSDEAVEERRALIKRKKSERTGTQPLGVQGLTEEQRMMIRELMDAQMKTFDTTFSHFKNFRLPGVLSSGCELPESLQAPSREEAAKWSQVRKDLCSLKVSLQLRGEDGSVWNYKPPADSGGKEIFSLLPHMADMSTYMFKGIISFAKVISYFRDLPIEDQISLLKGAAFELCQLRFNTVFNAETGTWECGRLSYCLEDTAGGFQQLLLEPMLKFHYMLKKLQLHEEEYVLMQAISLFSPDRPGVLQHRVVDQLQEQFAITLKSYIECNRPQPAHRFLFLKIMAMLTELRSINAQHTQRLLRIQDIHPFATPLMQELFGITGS
T10 sequence (P35372 whole entry): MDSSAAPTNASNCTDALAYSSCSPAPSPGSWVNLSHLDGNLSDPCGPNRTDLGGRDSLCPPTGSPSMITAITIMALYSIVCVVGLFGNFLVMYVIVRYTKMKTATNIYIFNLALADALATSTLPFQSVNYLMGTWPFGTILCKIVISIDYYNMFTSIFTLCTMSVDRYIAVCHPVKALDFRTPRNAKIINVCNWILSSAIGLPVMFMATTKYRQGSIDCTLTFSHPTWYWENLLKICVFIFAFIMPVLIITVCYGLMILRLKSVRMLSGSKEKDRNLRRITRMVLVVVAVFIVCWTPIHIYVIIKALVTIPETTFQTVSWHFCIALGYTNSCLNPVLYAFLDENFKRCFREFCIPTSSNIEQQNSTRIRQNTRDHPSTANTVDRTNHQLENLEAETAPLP
Sequence of NQO2 (P16083 whole entry): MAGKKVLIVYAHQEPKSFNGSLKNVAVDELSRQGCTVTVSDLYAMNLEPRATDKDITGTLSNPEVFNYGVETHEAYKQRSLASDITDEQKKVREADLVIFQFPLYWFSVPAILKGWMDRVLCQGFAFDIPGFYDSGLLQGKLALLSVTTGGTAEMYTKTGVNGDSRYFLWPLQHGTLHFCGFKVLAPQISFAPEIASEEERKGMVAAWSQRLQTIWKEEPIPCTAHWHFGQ
T7 sequence (P11229 whole entry): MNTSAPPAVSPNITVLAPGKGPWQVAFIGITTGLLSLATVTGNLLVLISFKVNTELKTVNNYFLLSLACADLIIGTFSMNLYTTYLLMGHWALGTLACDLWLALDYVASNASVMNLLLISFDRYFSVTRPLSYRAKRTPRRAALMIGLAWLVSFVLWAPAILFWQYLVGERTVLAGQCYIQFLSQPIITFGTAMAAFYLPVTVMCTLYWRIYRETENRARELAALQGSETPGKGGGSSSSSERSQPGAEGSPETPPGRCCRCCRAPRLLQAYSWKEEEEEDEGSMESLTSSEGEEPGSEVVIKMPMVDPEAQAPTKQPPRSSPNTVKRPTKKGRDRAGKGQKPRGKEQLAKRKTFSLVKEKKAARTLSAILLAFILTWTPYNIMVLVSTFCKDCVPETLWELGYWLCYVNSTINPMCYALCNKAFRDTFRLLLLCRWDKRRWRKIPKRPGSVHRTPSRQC
T15 sequence (P46098 whole entry): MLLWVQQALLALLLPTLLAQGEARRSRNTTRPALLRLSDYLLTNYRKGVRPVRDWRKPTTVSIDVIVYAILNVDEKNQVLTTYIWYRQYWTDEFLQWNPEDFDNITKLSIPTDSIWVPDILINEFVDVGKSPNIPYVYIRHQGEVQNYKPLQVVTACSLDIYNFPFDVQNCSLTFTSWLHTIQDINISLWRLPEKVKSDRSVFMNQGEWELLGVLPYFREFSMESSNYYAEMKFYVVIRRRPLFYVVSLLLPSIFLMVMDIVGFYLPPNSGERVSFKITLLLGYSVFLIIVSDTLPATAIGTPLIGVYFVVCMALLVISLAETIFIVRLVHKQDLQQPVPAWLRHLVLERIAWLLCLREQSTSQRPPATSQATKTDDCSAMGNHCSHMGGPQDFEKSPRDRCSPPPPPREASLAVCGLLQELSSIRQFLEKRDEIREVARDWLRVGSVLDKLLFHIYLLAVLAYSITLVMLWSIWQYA
T17 sequence (P35368 whole entry): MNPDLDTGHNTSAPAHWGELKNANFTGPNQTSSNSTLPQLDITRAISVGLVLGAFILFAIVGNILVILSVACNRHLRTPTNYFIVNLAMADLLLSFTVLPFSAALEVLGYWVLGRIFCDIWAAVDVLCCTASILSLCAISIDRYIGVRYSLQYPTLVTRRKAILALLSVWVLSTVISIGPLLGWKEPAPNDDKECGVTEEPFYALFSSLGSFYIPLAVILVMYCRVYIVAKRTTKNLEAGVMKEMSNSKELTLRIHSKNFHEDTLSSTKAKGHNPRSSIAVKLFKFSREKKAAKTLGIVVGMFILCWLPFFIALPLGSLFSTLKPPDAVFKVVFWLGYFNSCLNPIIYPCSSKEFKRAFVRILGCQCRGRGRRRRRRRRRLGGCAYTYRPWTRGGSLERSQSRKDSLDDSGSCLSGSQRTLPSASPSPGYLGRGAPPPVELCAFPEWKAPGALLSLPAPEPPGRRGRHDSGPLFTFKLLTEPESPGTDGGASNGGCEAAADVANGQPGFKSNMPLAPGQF
T18 sequence (P21728 whole entry): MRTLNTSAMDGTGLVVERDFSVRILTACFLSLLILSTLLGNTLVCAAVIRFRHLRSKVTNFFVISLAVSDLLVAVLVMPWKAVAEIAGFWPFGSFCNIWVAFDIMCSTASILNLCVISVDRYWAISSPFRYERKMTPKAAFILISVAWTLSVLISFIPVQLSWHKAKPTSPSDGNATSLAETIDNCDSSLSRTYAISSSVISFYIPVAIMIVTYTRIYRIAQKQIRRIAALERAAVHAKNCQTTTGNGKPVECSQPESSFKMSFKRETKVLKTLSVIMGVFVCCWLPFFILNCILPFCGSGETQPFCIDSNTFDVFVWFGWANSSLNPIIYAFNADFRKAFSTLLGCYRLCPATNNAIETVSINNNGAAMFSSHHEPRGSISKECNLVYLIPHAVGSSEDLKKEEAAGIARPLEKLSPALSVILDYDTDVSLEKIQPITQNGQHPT
T2 sequence (P29274 whole entry): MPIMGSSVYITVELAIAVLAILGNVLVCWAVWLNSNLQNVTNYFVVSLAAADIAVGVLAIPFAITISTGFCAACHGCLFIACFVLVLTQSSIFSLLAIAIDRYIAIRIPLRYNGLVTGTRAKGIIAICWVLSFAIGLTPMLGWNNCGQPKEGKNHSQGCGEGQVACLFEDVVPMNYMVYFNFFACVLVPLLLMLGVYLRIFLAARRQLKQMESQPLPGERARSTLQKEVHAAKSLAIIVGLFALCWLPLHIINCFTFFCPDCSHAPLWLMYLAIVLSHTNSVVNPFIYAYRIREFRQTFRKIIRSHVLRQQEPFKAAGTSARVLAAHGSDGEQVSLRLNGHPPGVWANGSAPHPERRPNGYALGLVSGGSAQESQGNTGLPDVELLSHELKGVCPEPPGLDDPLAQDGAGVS

CCCCS(=O)(=O)Nc1ccc2cnn(C)c2c1 [GSK3011724A]
Kd (NQO2): 4 to 6 µM | Kd (KasA): 0.01 to 0.02 µM | Kd (Pks10): 1.4 µM | Kd (Pks11): 1.4 µM | EC50 (Adenosine A2a): > 100 µM | EC50 (Adrenergic α2C): > 100 µM | EC50 (Adrenergic β2 [1]): > 100 µM | EC50 (AhR): > 100 µM | EC50 (Cannabinoid CB2): > 100 µM | EC50 (Dopamine D2): > 100 µM | EC50 (Muscarine M1): > 50.1 µM | EC50 (Muscarine M2): > 50.1 µM | EC50 (Opioid κ): > 100 µM | EC50 (Opioid μ): > 100 µM | EC50 (PXR): > 50.1 µM | EC50 (Serotonin 5HT1B): > 100 µM | EC50 (Serotonin 5HT2A): > 25.1 µM | EC50 (Serotonin 5HT2C): > 25.1 µM | EC50 (Serotonin 5HT3): > 50.1 µM | EC50 (α1 nicotinic AChR): > 50.1 µM | IC50 (Adrenergic α1B): > 25.1 µM | IC50 (Adrenergic β2 [2]): > 100 µM | IC50 (Dopamine D1): > 100 µM
